Like-named read-outs stand apart in the source and are kept apart here.
Legend:
Human μ-opioid receptor = Human μ-opioid receptor (Homo sapiens, UniProt P35372); assay: biochemical; type: binding
[1] = target: Human α2δ-1 subunit of Cav2.2 calcium channel (Homo sapiens, UniProt P54289); assay: biochemical; type: binding
[2] = binding to α2δ-1 subunit of voltage-gated calcium channels expressed as Ki, + also Ki>5000 nM or inhibition between 1% and 50%, read-out: α2δ-1 binding

Human μ-opioid receptor, sequence (P35372 whole entry): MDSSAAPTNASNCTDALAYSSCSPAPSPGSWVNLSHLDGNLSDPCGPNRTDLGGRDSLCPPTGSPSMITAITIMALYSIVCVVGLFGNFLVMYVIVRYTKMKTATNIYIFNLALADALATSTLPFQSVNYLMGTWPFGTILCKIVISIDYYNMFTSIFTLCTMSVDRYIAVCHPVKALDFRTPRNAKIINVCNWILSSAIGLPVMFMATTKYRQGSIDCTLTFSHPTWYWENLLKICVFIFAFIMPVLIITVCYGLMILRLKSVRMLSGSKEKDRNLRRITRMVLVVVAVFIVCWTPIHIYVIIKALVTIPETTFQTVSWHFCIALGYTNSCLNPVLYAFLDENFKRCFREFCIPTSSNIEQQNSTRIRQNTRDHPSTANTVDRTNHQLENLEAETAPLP
Human α2δ-1 subunit of Cav2.2 calcium channel, sequence (P54289 25-1103): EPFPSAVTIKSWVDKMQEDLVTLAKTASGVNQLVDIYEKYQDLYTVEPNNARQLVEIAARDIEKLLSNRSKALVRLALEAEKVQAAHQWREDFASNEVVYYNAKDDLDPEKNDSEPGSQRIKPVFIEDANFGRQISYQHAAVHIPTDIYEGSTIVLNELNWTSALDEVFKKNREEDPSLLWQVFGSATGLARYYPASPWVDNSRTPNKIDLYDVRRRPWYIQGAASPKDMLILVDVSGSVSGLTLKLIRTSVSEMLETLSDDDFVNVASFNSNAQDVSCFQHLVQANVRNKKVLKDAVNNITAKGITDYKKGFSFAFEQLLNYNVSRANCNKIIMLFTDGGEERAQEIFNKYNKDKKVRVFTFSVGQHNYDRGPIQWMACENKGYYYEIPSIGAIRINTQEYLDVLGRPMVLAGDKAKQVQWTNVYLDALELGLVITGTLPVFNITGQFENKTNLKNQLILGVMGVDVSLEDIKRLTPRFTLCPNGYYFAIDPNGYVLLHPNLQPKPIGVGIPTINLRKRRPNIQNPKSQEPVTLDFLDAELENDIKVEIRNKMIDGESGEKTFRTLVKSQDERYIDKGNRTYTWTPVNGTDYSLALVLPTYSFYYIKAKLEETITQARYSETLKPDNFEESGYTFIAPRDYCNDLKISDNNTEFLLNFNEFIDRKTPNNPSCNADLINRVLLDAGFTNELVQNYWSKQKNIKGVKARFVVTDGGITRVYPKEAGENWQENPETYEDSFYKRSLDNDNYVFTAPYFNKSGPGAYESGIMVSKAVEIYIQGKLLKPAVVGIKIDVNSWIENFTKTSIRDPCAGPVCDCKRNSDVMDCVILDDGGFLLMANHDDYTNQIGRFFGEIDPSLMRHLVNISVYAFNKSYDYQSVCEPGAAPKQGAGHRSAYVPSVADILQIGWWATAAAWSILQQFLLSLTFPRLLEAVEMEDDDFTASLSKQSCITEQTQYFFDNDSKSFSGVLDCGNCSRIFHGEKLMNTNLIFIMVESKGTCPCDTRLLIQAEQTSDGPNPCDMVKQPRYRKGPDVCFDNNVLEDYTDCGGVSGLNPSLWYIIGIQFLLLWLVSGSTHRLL

| Structure (SMILES) | Ki (Human μ-opioid receptor) [µM] | Ki [1] [µM] | also measured |
| --- | --- | --- | --- |
| CCCC(c1nc2ccccc2c(=O)n1CCN(C)C)N1C[C@@H](C)N[C@@H](C)C1 (stereo partly drawn) [Example 128, 3-(2-(Dimethylamino)ethyl)-2-(1-((3S,5R)-3,5-dimethylpiperazin-1-yl)butyl)quinazolin-4(3H)-one] | – | – | Ki (Human μ-opioid receptor; read-out: μ-binding): > 0.5 µM; Ki ([1]; read-out: α2δ-1 binding): 0.5 to 5 µM |
| CCCC(c1nc2ccccc2c(=O)n1CCN(C)CCc1ccccc1)N1C[C@@H](C)N[C@@H](C)C1 (stereo partly drawn) [Example 129, 2-(1-((3S,5R)-3,5-dimethylpiperazin-1-yl)butyl)-3-(2-(methyl(phenethyl)amino)ethyl)quinazolin-4(3H)-one] | – | – | Ki (Human μ-opioid receptor; read-out: μ-binding): > 0.5 µM; Ki ([1]; read-out: α2δ-1 binding): 0.5 to 5 µM |
| CCCC(c1nc2ccccc2c(=O)n1CCN(C)CCCc1ccccc1)N1C[C@@H](C)N[C@@H](C)C1 (stereo partly drawn) [Example 130, 2-(1-((3S,5R)-3,5-dimethylpiperazin-1-yl)butyl)-3-(2-(methyl(3-phenylpropyl)amino)ethyl)quinazolin-4(3H)-one] | – | – | Ki (Human μ-opioid receptor; read-out: μ-binding): > 0.5 µM; Ki ([1]; read-out: α2δ-1 binding): 0.5 to 5 µM |
| CCCC(c1nc2ccccc2c(=O)n1CCN(C)C)N1C[C@@H](C)N(C)[C@@H](C)C1 (stereo partly drawn) [Example 131, 3-(2-(Dimethylamino)ethyl)-2-(1-((3S,5R)-3,4,5-trimethylpiperazine-1-yl)butyl)quinazolin-4(3H)-one] | – | – | Ki (Human μ-opioid receptor; read-out: μ-binding): > 0.5 µM; Ki ([1]; read-out: α2δ-1 binding): > 5 µM |
| CCCC(c1nc2ccc(-c3ccncc3)cc2c(=O)n1CC)N1C[C@@H](C)N[C@@H](C)C1 (stereo partly drawn) [Example 132, 2-(1-((3S,5R)-3,5-Dimethylpiperazin-1-yl)butyl)-3-ethyl-6-(pyridin-4-yl)quinazolin-4(3H)-one] | > 0.5 | < 0.5 | – |
| CCCC(c1nc2cc(-c3ccncc3)ccc2c(=O)n1CC)N1C[C@@H](C)N[C@@H](C)C1 (stereo partly drawn) [Example 133, 2-(1-((3S,5R)-3,5-dimethylpiperazin-1-yl)butyl)-3-ethyl-7-(pyridin-4-yl)quinazolin-4(3H)-one] | > 0.5 | < 0.5 | – |
| CCCC(c1nc2cc(-c3cccc(O)c3)ccc2c(=O)n1CC)N1C[C@@H](C)N[C@@H](C)C1 (stereo partly drawn) [Example 134, 2-(1-((3S,5R)-3,5-dimethylpiperazin-1-yl)butyl)-3-ethyl-7-(3-hydroxyphenyl)quinazolin-4(3H)-one] | > 0.5 | < 0.5 | – |
| CCCC(c1nc2cc(-c3ccnc(OC)c3)ccc2c(=O)n1CC)N1C[C@@H](C)N[C@@H](C)C1 (stereo partly drawn) [Example 135, 2-(1-((3S,5R)-3,5-dimethylpiperazin-1-yl)butyl)-3-ethyl-7-(2-methoxypyridin-4-yl)quinazolin-4(3H)-one] | > 0.5 | < 0.5 | – |
| CCCC(c1nc2cc(-c3ccnc(CNC)c3)ccc2c(=O)n1C)N1C[C@@H](C)N[C@@H](C)C1 (stereo partly drawn) [Example 136, 2-(1-((3S,5R)-3,5-dimethylpiperazin-1-yl)butyl)-3-methyl-7-(2-((methylamino)methyl)pyridin-4-yl)quinazolin-4(3H)-one] | – | – | Ki (Human μ-opioid receptor; read-out: μ-binding): > 0.5 µM; Ki ([1]; read-out: α2δ-1 binding): 0.5 to 5 µM |
| CCCC(c1nc2cc(N3CCCC3)ccc2c(=O)n1CC)N1C[C@@H](C)N[C@@H](C)C1 (stereo partly drawn) [Example 137, 2-(1-((3S,5R)-3,5-Dimethylpiperazin-1-yl)butyl)-3-ethyl-7-(pyrrolidin-1-yl)quinazolin-4(3H)-one] | > 0.5 | < 0.5 | – |
| CCCC(c1nc2ccc(N3CCCC3)cc2c(=O)n1CC)N1C[C@@H](C)N[C@@H](C)C1 (stereo partly drawn) [Example 138, 2-(1-((3S,5R)-3,5-dimethylpiperazin-1-yl)butyl)-3-ethyl-6-(pyrrolidin-1-yl)quinazolin-4(3H)-one] | > 0.5 | < 0.5 | – |
| CCCC(c1nc2ccc(N3CCC(N(C)C)CC3)cc2c(=O)n1CC)N1C[C@@H](C)N[C@@H](C)C1 (stereo partly drawn) [Example 139, 6-(4-(dimethylamino)piperidin-1-yl)-2-(1-((3S,5R)-3,5-dimethylpiperazin-1-yl)butyl)-3-ethylquinazolin-4(3H)-one] | > 0.5 | < 0.5 | – |
| CCCC(c1nc2ccc(N3CCC(NC)CC3)cc2c(=O)n1CC)N1C[C@@H](C)N[C@@H](C)C1 (stereo partly drawn) [Example 140, 2-(1-((3S,5R)-3,5-dimethylpiperazin-1-yl)butyl)-3-ethyl-6-(4-(methylamino)piperidin-1-yl)quinazolin-4(3H)-one] | > 0.5 | < 0.5 | – |
| CCCC(c1nc2ccc(N3CCC(N)CC3)cc2c(=O)n1CC)N1C[C@@H](C)N[C@@H](C)C1 (stereo partly drawn) [Example 141, 6-(4-aminopiperidin-1-yl)-2-(1-((3S,5R)-3,5-dimethylpiperazin-1-yl)butyl)-3-ethylquinazolin-4(3H)-one] | > 0.5 | < 0.5 | – |
| CCCC(c1nc2ccc(N(C)C3CCN(C)CC3)cc2c(=O)n1CC)N1C[C@@H](C)N[C@@H](C)C1 (stereo partly drawn) [Example 143, 2-(1-((3S,5R)-3,5-dimethylpiperazin-1-yl)butyl)-3-ethyl-6-(methyl(1-methylpiperidin-4-yl)amino)quinazolin-4(3H)-one] | – | < 0.5 | Ki (Human μ-opioid receptor; binding to μ-opioid receptor expressed as Ki, + also Ki>500 nM or inhibition between 1% and 50%, read-out: μ-binding): > 0.5 µM |
| CCCC(c1nc2ccc(N(C)Cc3ccccc3)cc2c(=O)n1CC)N1C[C@@H](C)N[C@@H](C)C1 (stereo partly drawn) [Example 144, 6-(benzyl(methyl)amino)-2-(1-((3S,5R)-3,5-dimethylpiperazin-1-yl)butyl)-3-ethylquinazolin-4(3H)-one] | > 0.5 | < 0.5 | – |
| CCCC(c1nc2ccc(NCCNC)cc2c(=O)n1CC)N1C[C@@H](C)N[C@@H](C)C1 (stereo partly drawn) [Example 145, 2-(1-((3S,5R)-3,5-dimethylpiperazin-1-yl)butyl)-3-ethyl-6-((2-(methylamino)ethyl)amino)quinazolin-4(3H)-one] | > 0.5 | < 0.5 | – |
| CCCC(c1nc2ccc(N(C)CCNC)cc2c(=O)n1CC)N1C[C@@H](C)N[C@@H](C)C1 (stereo partly drawn) [Example 146, 2-(1-((3S,5R)-3,5-dimethylpiperazin-1-yl)butyl)-3-ethyl-6-(methyl(2-(methylamino)ethyl)amino)quinazolin-4(3H)-one] | > 0.5 | < 0.5 | – |
| CCCC(c1nc2cc(NCCNC)ccc2c(=O)n1CC)N1C[C@@H](C)N[C@@H](C)C1 (stereo partly drawn) [Example 147, 2-(1-((3S,5R)-3,5-dimethylpiperazin-1-yl)butyl)-3-ethyl-7-((2-(methylamino)ethyl)amino)quinazolin-4(3H)-one] | > 0.5 | < 0.5 | – |
| CCCC(c1nc2ccc(N3CC=C(c4ccccc4O)CC3)cc2c(=O)n1CC)N1C[C@@H](C)N[C@@H](C)C1 (stereo partly drawn) [Example 148, 2-(1-((3S,5R)-3,5-dimethylpiperazin-1-yl)butyl)-3-ethyl-6-(4-(2-hydroxyphenyl)-5,6-dihydropyridin-1(2H)-yl)quinazolin-4(3H)-one] | > 0.5 | < 0.5 | – |
| CCCC(c1nc2ccc(N3CCC(N(C)Cc4ccccc4)CC3)cc2c(=O)n1CC)N1C[C@@H](C)N[C@@H](C)C1 (stereo partly drawn) [Example 151, 6-(4-(benzyl(methyl)amino)piperidin-1-yl)-2-(1-((3S,5R)-3,5-dimethylpiperazin-1-yl)butyl)-3-ethylquinazolin-4(3H)-one] | > 0.5 | < 0.5 | – |
| CCC[C@@H](c1nc2ccc(N3C[C@H](C)OC4(CCNCC4)C3)cc2c(=O)n1CC)N1C[C@@H](C)N[C@@H](C)C1 [Example 152, 2-((S)-1-((3S,5R)-3,5-Dimethylpiperazin-1-yl)butyl)-3-ethyl-6-((S)-2-methyl-1-oxa-4,9-diazaspiro[5.5]undecan-4-yl)quinazolin-4(3H)-one] | – | – | Ki (Human μ-opioid receptor; read-out: μ-binding): > 0.5 µM; Ki ([1]; read-out: α2δ-1 binding): 0.5 to 5 µM |
| CCC[C@H](c1nc2ccc(N3C[C@H](C)OC4(CCNCC4)C3)cc2c(=O)n1CC)N1C[C@@H](C)N[C@@H](C)C1 [Example 153, 2-((R)-1-((3S,5R)-3,5-dimethylpiperazin-1-yl)butyl)-3-ethyl-6-((S)-2-methyl-1-oxa-4,9-diazaspiro[5.5]undecan-4-yl)quinazolin-4(3H)-one] | – | – | Ki (Human μ-opioid receptor; read-out: μ-binding): > 0.5 µM; Ki ([1]; read-out: α2δ-1 binding): 0.5 to 5 µM |
| CCC[C@@H](c1nc2ccc(N3C[C@@H](C)OC4(CCN(CCc5ccccc5)CC4)C3)cc2c(=O)n1CC)N1C[C@@H](C)N[C@@H](C)C1 [Example 154, 2-((S)-1-((3S,5R)-3,5-Dimethylpiperazin-1-yl)butyl)-3-ethyl-6-((R)-2-methyl-9-phenethyl-1-oxa-4,9-diazaspiro[5.5]undecan-4-yl)quinazolin-4(3H)-one] | > 0.5 | < 0.5 | – |
| CCC[C@@H](c1nc2ccc(N3C[C@H](C)OC4(CCN(CCc5ccccc5)CC4)C3)cc2c(=O)n1CC)N1C[C@@H](C)N[C@@H](C)C1 [Example 155, 2-((S)-1-((3S,5R)-3,5-dimethylpiperazin-1-yl)butyl)-3-ethyl-6-((S)-2-methyl-9-phenethyl-1-oxa-4,9-diazaspiro[5.5]undecan-4-yl)quinazolin-4(3H)-one] | > 0.5 | < 0.5 | – |
| CCC[C@H](c1nc2ccc(N3C[C@H](C)OC4(CCN(CCc5ccccc5)CC4)C3)cc2c(=O)n1CC)N1C[C@@H](C)N[C@@H](C)C1 [Example 156, 2-((R)-1-((3S,5R)-3,5-dimethylpiperazin-1-yl)butyl)-3-ethyl-6-((S)-2-methyl-9-phenethyl-1-oxa-4,9-diazaspiro[5.5]undecan-4-yl)quinazolin-4(3H)-one] | > 0.5 | – | Ki [1, 2]: 0.5 to 5 µM |
| CCC[C@H](c1nc2ccc(N3C[C@@H](C)OC4(CCN(CCc5ccccc5)CC4)C3)cc2c(=O)n1CC)N1C[C@@H](C)N[C@@H](C)C1 [Example 157, 2-((R)-1-((3S,5R)-3,5-dimethylpiperazin-1-yl)butyl)-3-ethyl-6-((R)-2-methyl-9-phenethyl-1-oxa-4,9-diazaspiro[5.5]undecan-4-yl)quinazolin-4(3H)-one] | > 0.5 | – | Ki [1, 2]: 0.5 to 5 µM |
| CCC[C@@H](c1nc2ccc(NCC[C@@]3(c4ccccn4)CCOC4(CCCC4)C3)cc2c(=O)n1CC)N1C[C@@H](C)N[C@@H](C)C1 [Example 158, 2-((S)-1-((3S,5R)-3,5-Dimethylpiperazin-1-yl)butyl)-3-ethyl-6-((2-((R)-9-(pyridin-2-yl)-6-oxaspiro[4.5]decan-9-yl)ethyl)amino)quinazolin-4(3H)-one] | > 0.5 | < 0.5 | – |

— patent US20220002314A1 (priority 2018, published 2022)
